The source made the active and inactive calls. The rule behind the calls is not given here.
biological target: Influenza A virus M2 proton channel (A/TW/4845/1999 H1N1); assay: M2 proton channel binding, NMR based, influenza A virus H1N1 strain (AID 1549); details: NMR binding screen, M2 protein

| Structure (SMILES) | Kd |
| --- | --- |
| O=C(Nc1nnc(-c2cccnc2)o1)c1ccccc1F | > 4 mM (inactive) |
| CC(C)=CC(=O)Nc1ccc2c(c1)OCO2 | > 4 mM (inactive) |
| NC(=O)c1ccc(-c2csnn2)cc1 | > 4 mM (inactive) |
| O=C(O[C@@H]1Cc2c(O)cc(O)cc2O[C@@H]1c1ccc(O)c(O)c1)c1cc(O)c(O)c(O)c1 | > 4 mM (inactive) |
| CN(C)S(=O)(=O)c1ccc(C(=O)NN)cc1 | > 4 mM (inactive) |
| CC(=O)OCC(=O)[C@@]1(O)CCC2C3CC[C@@H]4C[C@H](OC(C)=O)CC[C@]4(C)C3C(=O)C[C@@]21C (stereo not given in full) | > 4 mM (inactive) |
| CCn1c2ccccc2c2nn(C)c(=N)nc21 | > 4 mM (inactive) |
| c1ccc(-n2ncc3c(NCc4ccco4)ncnc32)cc1 | > 4 mM (inactive) |
| O=C1c2cccnc2C(=O)N1Cc1ccco1 | > 4 mM (inactive) |
| O=C(/C=C/c1ccc(O)c(O)c1)O[C@@H]1C[C@](O)(C(=O)O)C[C@@H](O)[C@H]1O | > 4 mM (inactive) |
| CNC(=S)N1CCN=C1Nc1nc(C)cc(C)n1 | > 4 mM (inactive) |
| CCn1nnc2c(NCc3ccccn3)ncnc21 | > 4 mM (inactive) |
| COc1ccc(CN2CCOCC2)c(C)c1C | > 4 mM (inactive) |
| CCC(C)C(=O)O[C@@H]1C[C@@]2(C)[C@H](c3ccoc3)OC(=O)CC23OC2(C)OC34[C@H](OC(=O)C(C)C)[C@@]3(O)[C@@H](OC(=O)C5(C)OC5C)[C@@]5(C)C[C@]3(O)[C@@](C)([C@H]5CC(=O)OC)C14O2 (stereo not given in full) | > 4 mM (inactive) |
| CC(=O)Nc1nc2c(s1)C(=O)NCCC2 | > 4 mM (inactive) |
| CC(=O)Nc1ccc2c(c1)CCC2=O | > 4 mM (inactive) |
| O=S(=O)(NCc1ccco1)N1CCOCC1 | > 4 mM (inactive) |
| Cc1cc(C)n2nc(-c3cccnc3)nc2n1 | > 4 mM (inactive) |
| Nc1nsc(-c2ccccc2)n1 | > 4 mM (inactive) |
| COc1cc([C@@H]2c3cc4c(c(O)c3C[C@H]3COC(=O)[C@@H]32)OCO4)cc(OC)c1OC | > 4 mM (inactive) |
| CCOC(=O)c1cnc2n(c1=O)CCS2 | > 4 mM (inactive) |
| OCc1ccc(CN2CCOCC2)cc1 | > 4 mM (inactive) |
| Cc1ccc(S(=O)(=O)CC(=O)N2CCCC2)cc1 | > 4 mM (inactive) |
| Cc1nn(CC(=O)Nc2ccccn2)c(=O)c2ccccc12 | > 4 mM (inactive) |
| Cc1c(C(=O)NCc2ccccn2)oc2ccccc12 | > 4 mM (inactive) |
| COC(=O)C1CSCC1=O (stereo not given) | > 4 mM (inactive) |
| Cc1ccc(O)c(NC(=O)c2ccco2)c1 | > 4 mM (inactive) |

| Structure (SMILES) | Kd |
| --- | --- |
| COc1ccc(-c2cc(=O)c3c(O)cc(O[C@H]4O[C@H](CO[C@@H]5O[C@@H](C)[C@H](O)[C@@H](O)[C@H]5O)[C@@H](O)[C@H](O)[C@H]4O)cc3o2)cc1 | > 4 mM (inactive) |
| O=C(c1cccnc1Cl)N1CCOCC1 | > 4 mM (inactive) |
| CNC(=O)C(=O)NCc1ccc(C)cc1 | > 4 mM (inactive) |
| Cc1cc(C)n2nc(SCC(=O)c3ccccc3)nc2n1 | > 4 mM (inactive) |
| CC(=O)c1c(C)nc(-c2ccc(Cl)cc2Cl)n1O | > 4 mM (inactive) |
| Nc1nc(SCc2ccc3c(c2)OCCO3)n[nH]1 | > 4 mM (inactive) |
| Cc1c(/C=N/O)cnn1C | > 4 mM (inactive) |
| OCCNc1ccccn1 | > 4 mM (inactive) |
| Cn1cc(Cl)c(C(=O)NC2CCCCCC2)n1 | > 4 mM (inactive) |
| C=CCn1c(-c2ccc(O)cc2)n[nH]c1=S | > 4 mM (inactive) |
| O=C1C2C3C=CC(C3)C2C(=O)N1CCCO (stereo not given) | > 4 mM (inactive) |
| COc1ccc(C(=O)O)cc1OC | > 4 mM (inactive) |
| Cn1c(O)c(C=NCC2CCNCC2)c(=O)n(C)c1=O | > 4 mM (inactive) |
| CCCS(=O)(=O)N1CCN(c2ccccc2F)CC1 | > 4 mM (inactive) |
| Cc1nc(-c2ccc(C(=O)O)s2)cs1 | > 4 mM (inactive) |
| COc1c2ccoc2nc2c(OC)c(OCC(O)C(C)(C)O)ccc12 (stereo not given) | > 4 mM (inactive) |
| C[C@]12CC(=O)C3C(CC[C@@H]4C[C@H](O)CC[C@]34C)C1CC[C@]2(O)C(=O)CO (stereo not given in full) | > 4 mM (inactive) |
| CC(=O)Oc1c2c(c(CC=C(C)C)c3c1C(=O)C1=C[C@@H]4CC5C(C)(C)OC(C/C=C(\C)C(=O)O)(C4=O)[C@@]15O3)OC(C)(CCC=C(C)C)C=C2 (stereo not given in full) | > 4 mM (inactive) |
| CCC1(CC)C(=O)NC(=O)N=C1N | > 4 mM (inactive) |
| Cc1ccc(N2NC(=O)CC2=O)cc1C | > 4 mM (inactive) |
| CC1(C)CC[C@]2(C(=O)O)CC[C@]3(C)C(=CCC4[C@@]5(C)CC[C@H](O)[C@@](C)(CO)C5CC[C@]43C)C2C1 (stereo not given in full) | > 4 mM (inactive) |
| COc1cc2c(cc1-c1cc3cc4ccoc4cc3oc1=O)OCO2 | > 4 mM (inactive) |
| OCCCc1nc2ccc(C(F)(F)F)cc2[nH]1 | > 4 mM (inactive) |
| NC(=O)CN=Cc1c(O)[nH]c2ccccc12 | > 4 mM (inactive) |
| O=C(NCc1ccco1)c1nc2ncccn2n1 | > 4 mM (inactive) |
| O=S(=O)(Nc1cccnc1Cl)c1ccccc1 | > 4 mM (inactive) |
| Cc1noc(C)c1C(=O)Nc1ccc2c(c1)CCC2 | > 4 mM (inactive) |

| Structure (SMILES) | Kd |
| --- | --- |
| S=C(NCc1cccnc1)NC1CC1 | > 4 mM (inactive) |
| Cc1cc(C(=O)NC2=NCCS2)cs1 | > 4 mM (inactive) |
| Cn1c(=O)c2[nH]cnc2n(-c2ccccc2)c1=O | > 4 mM (inactive) |
| COc1ccc(S(=O)(=O)N2CCC(C(N)=O)CC2)cc1 | > 4 mM (inactive) |
| C[C@H](CCC(=O)O)[C@H]1CCC2C3C(CC[C@@]21C)[C@@]1(C)CC[C@@H](O)C[C@H]1C[C@@H]3O (stereo not given in full) | > 4 mM (inactive) |
| CC(=O)Oc1cc(OC(C)=O)c2c(c1)O[C@H](c1ccc(OC(C)=O)c(OC(C)=O)c1)[C@H](OC(C)=O)C2 | > 4 mM (inactive) |
| COc1ccccc1NC(N)=S | > 4 mM (inactive) |
| c1cncc(Nc2nc(-c3ccncc3)cs2)c1 | > 4 mM (inactive) |
| Cc1ccc(SCc2nc(-c3cccnc3)no2)cc1 | > 4 mM (inactive) |
| O=C(Nc1ccccc1)C(=O)NC1CC1 | > 4 mM (inactive) |
| CCCn1c(S(=O)(=O)O)nc2ccccc21 | > 4 mM (inactive) |
| CS(=O)(=O)c1cccc(C(=O)Nc2nccs2)c1 | > 4 mM (inactive) |
| NC(=O)CSc1ccc(Br)cc1 | > 4 mM (inactive) |
| Cc1ccccc1N1CCN(C(=O)C2CCCCC2)CC1 | > 4 mM (inactive) |
| Cc1cc2ncc(C(=O)O)c(C)n2n1 | > 4 mM (inactive) |
| COc1cc(OC)c2c(=O)c(OC)c(-c3ccc(OC)c(OC)c3)oc2c1 | > 4 mM (inactive) |
| CCc1noc(C)c1C(=O)N1CCCC1 | > 4 mM (inactive) |
| O=C(Nc1cnc2ccccn2c1=O)c1ccc(F)cc1 | > 4 mM (inactive) |
| CC(=O)NCC1OCCc2ccccc21 (stereo not given) | > 4 mM (inactive) |
| C/C=C1\[C@H]2C=C(C)C[C@]1(N)c1ccc(=O)[nH]c1C2 | > 4 mM (inactive) |
| O=C1CCCN1c1ccc(S(=O)O)cc1 | > 4 mM (inactive) |
| Cc1cccc(NC(=O)Nc2cc(C)on2)c1 | > 4 mM (inactive) |
| Cc1cc(C)nc(/N=C(\N)N2CCc3ccccc32)n1 | > 4 mM (inactive) |
| O=c1[nH]cc(S(=O)(=O)Nc2ccccc2)c(=O)[nH]1 | > 4 mM (inactive) |
| OCc1ccc(-c2cccs2)s1 | > 4 mM (inactive) |
| CCn1nnc(NC(=O)c2cc3ccccc3o2)n1 | > 4 mM (inactive) |
